Results reported in the NIST ThermoML archive (doi:10.1016/j.tca.2012.08.009).
Numbers after ± are expanded uncertainties.

Experiments:
[1] = refractive index (Na D-line) (dimensionless); conditions: 298.15 K; 101.33 kPa; Liquid; Standard Abbe refractometry
[2] = 298.15 K, 101 kPa, Liquid; for viscosity: Capillary tube (Ostwald / Ubbelohde) method; for speed of sound: Linear variable-path acoustic interferometer; for mass density: Vibrating tube method
[3] = wn = mass fraction of the nth substance listed; conditions: 298.15 K, 101 kPa, Liquid; for viscosity: Capillary tube (Ostwald / Ubbelohde) method; for speed of sound: Linear variable-path acoustic interferometer; for mass density: Vibrating tube method
[4] = refractive index (Na D-line) (dimensionless); wn = mass fraction of the nth substance listed; conditions: 298.15 K, 101 kPa, Liquid, Standard Abbe refractometry
[5] = refractive index (Na D-line) (dimensionless); cn = amount concentration of the nth substance listed, in mol/dm3; conditions: 298.15 K, 101 kPa, Liquid, Standard Abbe refractometry
[6] = cn = amount concentration of the nth substance listed, in mol/dm3; conditions: 298.15 K, 101 kPa, Liquid; for molar conductivity: Alternating current cell with electrodes; for viscosity: Capillary tube (Ostwald / Ubbelohde) method; for speed of sound: Linear variable-path acoustic interferometer; for mass density: Vibrating tube method

C1COCO1 [1,3-dioxolane]
Conditions	mass density [kg/m3]	refractive index	speed of sound [m/s]	viscosity [mPa·s]
[1]	–	1.3974 ± 0.0006	–	–
[2]	1058.72 ± 0.96	–	1338.9 ± 2.5	0.597 ± 0.009

C1COCO1 [1,3-dioxolane] + CC#N
Conditions	mass density, [3] [kg/m3]	refractive index, [4]	speed of sound, [3] [m/s]	viscosity, [3] [mPa·s]
w2 = 0	1058.72 ± 0.96	1.3974 ± 0.0006	1338.9 ± 2.5	0.597 ± 0.009
w2 = 0.25	979.95 ± 0.82	1.3835 ± 0.0006	1324.6 ± 2.5	0.533 ± 0.009
w2 = 0.5	909.57 ± 0.75	1.3696 ± 0.0006	1310.2 ± 2.4	0.471 ± 0.008
w2 = 0.75	841.47 ± 0.67	1.3557 ± 0.0006	1295.8 ± 2.4	0.407 ± 0.008

CC#N [acetonitrile]
Conditions	mass density [kg/m3]	refractive index	speed of sound [m/s]	viscosity [mPa·s]
[1]	–	1.3418 ± 0.0006	–	–
[2]	776.74 ± 0.61	–	1281.5 ± 2.4	0.343 ± 0.007

CC#N [acetonitrile] + C1COCO1
w1 = 1
Conditions	mass density [kg/m3]	refractive index	speed of sound [m/s]	viscosity [mPa·s]
[3]	776.74 ± 0.61	–	1281.5 ± 2.4	0.343 ± 0.007
[4]	–	1.3418 ± 0.0006	–	–

[Br-].[Li+] [lithium bromide] + C1COCO1
Conditions	mass density [kg/m3]	molar conductivity [S·m2/mol]	refractive index	speed of sound [m/s]	viscosity [mPa·s]
[5], c1 = 0.0142	–	–	1.3984 ± 0.0006	–	–
[5], c1 = 0.0284	–	–	1.3993 ± 0.0006	–	–
[5], c1 = 0.0426	–	–	1.4001 ± 0.0006	–	–
[5], c1 = 0.0569	–	–	1.4008 ± 0.0006	–	–
[5], c1 = 0.0712	–	–	1.4014 ± 0.0006	–	–
[5], c1 = 0.0855	–	–	1.402 ± 0.0006	–	–
[6], c1 = 2.686e-05	–	0.002392 ± 1.4e-05	–	–	–
[6], c1 = 3.525e-05	–	0.002226 ± 1.3e-05	–	–	–
[6], c1 = 4.178e-05	–	0.002164 ± 1.3e-05	–	–	–
[6], c1 = 4.7e-05	–	0.002136 ± 1.3e-05	–	–	–
[6], c1 = 5.127e-05	–	0.002128 ± 1.3e-05	–	–	–
[6], c1 = 5.483e-05	–	0.002127 ± 1.3e-05	–	–	–
[6], c1 = 5.868e-05	–	0.002129 ± 1.3e-05	–	–	–
[6], c1 = 6.267e-05	–	0.002145 ± 1.3e-05	–	–	–
[6], c1 = 6.635e-05	–	0.002167 ± 1.3e-05	–	–	–
[6], c1 = 7.115e-05	–	0.002199 ± 1.3e-05	–	–	–
[6], c1 = 7.52e-05	–	0.002233 ± 1.3e-05	–	–	–
[6], c1 = 7.917e-05	–	0.002272 ± 1.4e-05	–	–	–
[6], c1 = 0.0142	1058.79 ± 0.68	–	–	1347.4 ± 2.2	0.599 ± 0.009
[6], c1 = 0.0284	1059 ± 0.68	–	–	1366.8 ± 2.2	0.603 ± 0.009
[6], c1 = 0.0426	1059.29 ± 0.68	–	–	1394.6 ± 2.3	0.607 ± 0.009
[6], c1 = 0.0569	1059.65 ± 0.68	–	–	1430.9 ± 2.3	0.612 ± 0.009
[6], c1 = 0.0712	1060.05 ± 0.68	–	–	1475.6 ± 2.4	0.617 ± 0.009
[6], c1 = 0.0855	1060.52 ± 0.68	–	–	1531.8 ± 2.4	0.622 ± 0.009

[Cl-].[Li+] [lithium chloride] + C1COCO1
Conditions	mass density [kg/m3]	molar conductivity [S·m2/mol]	refractive index	speed of sound [m/s]	viscosity [mPa·s]
[5], c1 = 0.0142	–	–	1.398 ± 0.0006	–	–
[5], c1 = 0.0284	–	–	1.3988 ± 0.0006	–	–
[5], c1 = 0.0426	–	–	1.3994 ± 0.0006	–	–
[5], c1 = 0.0568	–	–	1.4 ± 0.0006	–	–
[5], c1 = 0.071	–	–	1.4005 ± 0.0006	–	–
[5], c1 = 0.0852	–	–	1.401 ± 0.0006	–	–
[6], c1 = 3.525e-05	–	0.003047 ± 1.8e-05	–	–	–
[6], c1 = 3.871e-05	–	0.002972 ± 1.8e-05	–	–	–
[6], c1 = 4.453e-05	–	0.002875 ± 1.7e-05	–	–	–
[6], c1 = 4.924e-05	–	0.002803 ± 1.7e-05	–	–	–
[6], c1 = 5.609e-05	–	0.00273 ± 1.6e-05	–	–	–
[6], c1 = 6.159e-05	–	0.002693 ± 1.6e-05	–	–	–
[6], c1 = 6.635e-05	–	0.002673 ± 1.6e-05	–	–	–
[6], c1 = 7.162e-05	–	0.002663 ± 1.6e-05	–	–	–
[6], c1 = 7.442e-05	–	0.002672 ± 1.6e-05	–	–	–
[6], c1 = 7.691e-05	–	0.002715 ± 1.6e-05	–	–	–
[6], c1 = 7.721e-05	–	0.002746 ± 1.6e-05	–	–	–
[6], c1 = 7.779e-05	–	0.002778 ± 1.7e-05	–	–	–
[6], c1 = 0.0142	1058.75 ± 0.68	–	–	1344.6 ± 2.2	0.597 ± 0.009
[6], c1 = 0.0284	1058.9 ± 0.68	–	–	1356.8 ± 2.2	0.598 ± 0.009
[6], c1 = 0.0426	1059.11 ± 0.68	–	–	1373.9 ± 2.2	0.601 ± 0.009
[6], c1 = 0.0568	1059.4 ± 0.68	–	–	1394.7 ± 2.2	0.603 ± 0.009
[6], c1 = 0.071	1059.75 ± 0.68	–	–	1420.8 ± 2.3	0.606 ± 0.009
[6], c1 = 0.0852	1060.14 ± 0.68	–	–	1451.4 ± 2.3	0.608 ± 0.009

[I-].[Li+] [lithium iodide] + C1COCO1
Conditions	mass density [kg/m3]	molar conductivity [S·m2/mol]	refractive index	speed of sound [m/s]	viscosity [mPa·s]
[5], c1 = 0.0142	–	–	1.3988 ± 0.0006	–	–
[5], c1 = 0.0284	–	–	1.3997 ± 0.0006	–	–
[5], c1 = 0.0427	–	–	1.4004 ± 0.0006	–	–
[5], c1 = 0.057	–	–	1.4011 ± 0.0006	–	–
[5], c1 = 0.0714	–	–	1.4018 ± 0.0006	–	–
[5], c1 = 0.0858	–	–	1.4024 ± 0.0006	–	–
[6], c1 = 8.17e-06	–	0.001792 ± 1.1e-05	–	–	–
[6], c1 = 1.498e-05	–	0.000612 ± 4e-06	–	–	–
[6], c1 = 2.075e-05	–	0.000192 ± 1e-06	–	–	–
[6], c1 = 2.568e-05	–	0.000191 ± 1e-06	–	–	–
[6], c1 = 2.997e-05	–	0.000418 ± 3e-06	–	–	–
[6], c1 = 3.702e-05	–	0.000994 ± 6e-06	–	–	–
[6], c1 = 4.495e-05	–	0.001751 ± 1.1e-05	–	–	–
[6], c1 = 5.081e-05	–	0.00241 ± 1.4e-05	–	–	–
[6], c1 = 5.66e-05	–	0.003074 ± 1.8e-05	–	–	–
[6], c1 = 6.421e-05	–	0.003828 ± 2.3e-05	–	–	–
[6], c1 = 6.958e-05	–	0.004382 ± 2.6e-05	–	–	–
[6], c1 = 7.293e-05	–	0.004735 ± 2.8e-05	–	–	–
[6], c1 = 0.0142	1058.82 ± 0.68	–	–	1350.6 ± 2.2	0.601 ± 0.009
[6], c1 = 0.0284	1059.06 ± 0.68	–	–	1377.7 ± 2.3	0.607 ± 0.009
[6], c1 = 0.0427	1059.4 ± 0.68	–	–	1416.8 ± 2.3	0.614 ± 0.009
[6], c1 = 0.057	1059.82 ± 0.68	–	–	1469.7 ± 2.4	0.621 ± 0.009
[6], c1 = 0.0714	1060.32 ± 0.68	–	–	1539.7 ± 2.6	0.628 ± 0.009
[6], c1 = 0.0858	1060.86 ± 0.68	–	–	1630.2 ± 2.7	0.635 ± 0.009
